Assay results from article PMC8048867 (Chemmedchem, 2020).
Several values for one entry are separate records, joined by “and”; a condition that tells them apart may be missing. Equal values may be shown once.

Legend:
cell-viability assay [1] = format: cell-based; settings: human, Hep-G2 cells
mouse ovastacin = molecular target: T1, mouse ovastacin (Mus musculus, UniProt Q6HA09); assay: ovastacin inhibition, fluorogenic enzyme activity assay
T1 sequence (Q6HA09 86-435 limits assumed): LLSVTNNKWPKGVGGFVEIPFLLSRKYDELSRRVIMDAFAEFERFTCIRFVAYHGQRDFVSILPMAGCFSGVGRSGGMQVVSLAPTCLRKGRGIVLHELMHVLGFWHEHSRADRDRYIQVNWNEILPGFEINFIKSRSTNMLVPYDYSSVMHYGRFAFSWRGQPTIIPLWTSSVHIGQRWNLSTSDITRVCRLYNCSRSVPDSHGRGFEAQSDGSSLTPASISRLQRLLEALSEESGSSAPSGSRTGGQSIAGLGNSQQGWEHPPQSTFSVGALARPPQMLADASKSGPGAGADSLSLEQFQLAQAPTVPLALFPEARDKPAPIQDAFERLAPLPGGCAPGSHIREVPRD

[2] = molecular target: T2, recombinant human meprin β (Homo sapiens, UniProt Q16820); assay: meprin β inhibition, quenched fluorogenic peptide substrate assay; format: biochemical
T2 sequence (Q16820 62-701): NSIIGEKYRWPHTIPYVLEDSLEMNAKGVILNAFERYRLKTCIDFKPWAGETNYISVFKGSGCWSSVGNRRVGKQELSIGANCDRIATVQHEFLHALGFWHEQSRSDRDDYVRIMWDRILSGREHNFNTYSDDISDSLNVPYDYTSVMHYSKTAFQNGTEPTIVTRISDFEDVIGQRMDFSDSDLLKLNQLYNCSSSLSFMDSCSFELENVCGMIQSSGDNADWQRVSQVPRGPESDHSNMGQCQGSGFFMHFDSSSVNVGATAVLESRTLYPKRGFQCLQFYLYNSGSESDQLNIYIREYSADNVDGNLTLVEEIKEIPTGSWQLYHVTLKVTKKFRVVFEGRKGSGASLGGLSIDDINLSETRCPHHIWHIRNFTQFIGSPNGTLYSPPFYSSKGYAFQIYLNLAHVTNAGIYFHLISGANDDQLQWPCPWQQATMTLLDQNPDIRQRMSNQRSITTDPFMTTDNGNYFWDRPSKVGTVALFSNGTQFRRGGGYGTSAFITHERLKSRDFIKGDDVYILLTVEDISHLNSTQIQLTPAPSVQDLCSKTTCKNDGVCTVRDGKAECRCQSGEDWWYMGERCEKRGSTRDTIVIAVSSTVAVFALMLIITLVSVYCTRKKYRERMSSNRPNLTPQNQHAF

MMP2 = molecular target: T3, MMP2 (Homo sapiens, UniProt P08253); assay: off-target proteinase inhibition MMP2; format: biochemical; settings: read-out: Relative enzyme activity MMP2
T3 sequence (P08253 110-660): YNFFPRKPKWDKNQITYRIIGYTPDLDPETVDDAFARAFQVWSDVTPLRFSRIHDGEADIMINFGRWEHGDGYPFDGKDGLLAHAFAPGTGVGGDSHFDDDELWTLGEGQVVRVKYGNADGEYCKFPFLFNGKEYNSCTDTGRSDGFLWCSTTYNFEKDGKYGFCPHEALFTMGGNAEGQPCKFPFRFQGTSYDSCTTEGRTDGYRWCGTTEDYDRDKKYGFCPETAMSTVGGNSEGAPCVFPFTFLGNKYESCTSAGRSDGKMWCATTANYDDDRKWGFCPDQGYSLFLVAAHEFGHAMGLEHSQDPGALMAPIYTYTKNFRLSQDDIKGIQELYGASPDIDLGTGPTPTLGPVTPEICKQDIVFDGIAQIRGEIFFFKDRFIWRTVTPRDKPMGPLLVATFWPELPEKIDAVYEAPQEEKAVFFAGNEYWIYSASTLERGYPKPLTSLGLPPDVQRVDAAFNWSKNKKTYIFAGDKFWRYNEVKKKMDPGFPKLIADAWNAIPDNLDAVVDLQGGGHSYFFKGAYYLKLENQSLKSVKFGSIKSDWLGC

ADAM10 = molecular target: T4, ADAM10 (Homo sapiens, UniProt O14672); assay: off-target proteinase inhibition ADAM10; format: biochemical; settings: read-out: Relative enzyme activity ADAM10
T4 sequence (O14672 214-748): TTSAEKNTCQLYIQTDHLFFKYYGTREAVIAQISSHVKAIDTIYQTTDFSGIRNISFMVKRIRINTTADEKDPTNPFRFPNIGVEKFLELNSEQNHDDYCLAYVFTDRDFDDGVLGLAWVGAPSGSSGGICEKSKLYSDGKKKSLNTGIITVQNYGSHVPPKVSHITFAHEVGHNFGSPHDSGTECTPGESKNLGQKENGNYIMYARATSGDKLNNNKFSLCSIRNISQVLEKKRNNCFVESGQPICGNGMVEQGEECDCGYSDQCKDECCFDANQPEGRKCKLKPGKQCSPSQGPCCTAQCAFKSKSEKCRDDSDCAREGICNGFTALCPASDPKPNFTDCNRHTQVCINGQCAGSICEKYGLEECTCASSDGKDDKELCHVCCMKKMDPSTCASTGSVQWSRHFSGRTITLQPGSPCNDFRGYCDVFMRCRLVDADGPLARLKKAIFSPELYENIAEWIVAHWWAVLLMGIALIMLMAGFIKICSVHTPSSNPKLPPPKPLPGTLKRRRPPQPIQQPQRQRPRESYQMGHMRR

MMP13 = MMP13 (Homo sapiens, UniProt P45452); assay: off-target proteinase inhibition MMP13; format: biochemical; settings: read-out: Relative enzyme activity MMP13
MMP9 = MMP9 (Homo sapiens, UniProt P14780); assay: off-target proteinase inhibition MMP9; format: biochemical; settings: read-out: Relative enzyme activity MMP9
[3] = molecular target: T5, recombinant human meprin α (Homo sapiens, UniProt Q16819); assay: meprin α inhibition, quenched fluorogenic peptide substrate assay; format: biochemical; settings: for SF: selectivity factor (K i app meprin β/K i app meprin α): meprin α over meprin β
T5 sequence (Q16819 66-746): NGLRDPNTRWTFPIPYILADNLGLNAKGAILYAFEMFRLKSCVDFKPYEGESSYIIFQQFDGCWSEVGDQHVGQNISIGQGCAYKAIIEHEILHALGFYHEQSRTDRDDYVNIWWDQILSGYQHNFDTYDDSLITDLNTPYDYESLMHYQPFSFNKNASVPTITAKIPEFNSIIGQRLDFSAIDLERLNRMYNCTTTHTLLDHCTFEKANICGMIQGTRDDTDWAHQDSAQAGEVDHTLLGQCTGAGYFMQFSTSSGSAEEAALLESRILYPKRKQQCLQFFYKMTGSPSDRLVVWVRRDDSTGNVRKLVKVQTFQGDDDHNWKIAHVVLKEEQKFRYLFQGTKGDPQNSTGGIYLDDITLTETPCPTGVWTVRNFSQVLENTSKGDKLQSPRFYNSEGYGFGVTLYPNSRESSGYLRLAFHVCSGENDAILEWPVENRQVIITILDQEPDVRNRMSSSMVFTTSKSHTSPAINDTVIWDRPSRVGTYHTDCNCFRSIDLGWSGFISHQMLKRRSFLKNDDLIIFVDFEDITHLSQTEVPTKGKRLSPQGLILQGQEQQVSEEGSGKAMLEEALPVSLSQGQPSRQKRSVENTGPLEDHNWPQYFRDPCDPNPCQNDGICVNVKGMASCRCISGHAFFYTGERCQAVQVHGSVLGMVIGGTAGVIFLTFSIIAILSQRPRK

ADAM17 = ADAM17 (Homo sapiens, UniProt P78536); assay: off-target proteinase inhibition ADAM17; format: biochemical; settings: read-out: Relative enzyme activity ADAM17
cell-viability assay [4] = format: cell-based; settings: human, SH-SY5Y cells

Chain of ADAM17 (P78536 215-824): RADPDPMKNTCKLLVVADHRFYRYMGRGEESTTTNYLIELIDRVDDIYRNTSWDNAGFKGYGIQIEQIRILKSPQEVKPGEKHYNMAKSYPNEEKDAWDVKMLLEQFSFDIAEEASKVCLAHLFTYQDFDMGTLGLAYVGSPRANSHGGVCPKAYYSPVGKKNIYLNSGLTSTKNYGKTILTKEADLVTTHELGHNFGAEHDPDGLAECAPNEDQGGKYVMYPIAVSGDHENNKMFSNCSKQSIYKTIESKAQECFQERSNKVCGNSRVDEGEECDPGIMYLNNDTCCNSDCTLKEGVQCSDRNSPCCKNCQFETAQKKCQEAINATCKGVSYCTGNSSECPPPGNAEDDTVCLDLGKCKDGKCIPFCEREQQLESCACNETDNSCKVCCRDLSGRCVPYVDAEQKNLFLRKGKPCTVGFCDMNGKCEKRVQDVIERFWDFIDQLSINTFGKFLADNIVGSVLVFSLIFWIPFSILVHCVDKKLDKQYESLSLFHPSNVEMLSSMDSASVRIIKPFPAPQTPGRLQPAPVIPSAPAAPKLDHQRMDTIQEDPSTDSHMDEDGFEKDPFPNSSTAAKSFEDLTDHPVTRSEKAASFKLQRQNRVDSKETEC
Chain of MMP9 (P14780 107-707 limits assumed): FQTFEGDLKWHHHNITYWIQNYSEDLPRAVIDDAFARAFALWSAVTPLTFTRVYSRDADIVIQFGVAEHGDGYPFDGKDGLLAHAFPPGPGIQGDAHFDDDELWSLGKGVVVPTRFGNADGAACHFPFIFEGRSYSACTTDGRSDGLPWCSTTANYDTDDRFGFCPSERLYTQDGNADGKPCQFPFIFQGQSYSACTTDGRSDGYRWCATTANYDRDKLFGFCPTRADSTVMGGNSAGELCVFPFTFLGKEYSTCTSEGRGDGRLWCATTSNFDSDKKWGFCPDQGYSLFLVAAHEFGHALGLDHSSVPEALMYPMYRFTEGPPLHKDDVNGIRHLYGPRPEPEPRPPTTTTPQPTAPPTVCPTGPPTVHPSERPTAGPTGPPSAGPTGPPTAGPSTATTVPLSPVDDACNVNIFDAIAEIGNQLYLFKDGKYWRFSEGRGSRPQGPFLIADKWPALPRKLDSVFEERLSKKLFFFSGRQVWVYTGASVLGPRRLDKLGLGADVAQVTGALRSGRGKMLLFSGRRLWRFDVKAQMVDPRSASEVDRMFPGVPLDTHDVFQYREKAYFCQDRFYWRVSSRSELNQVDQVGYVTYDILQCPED

| Ki (mouse ovastacin) | SF Meprin α: selectivity factor (K i app ovastacin/K i app meprin α) (mouse ovastacin) | SF Meprin β: selectivity factor (K i app ovastacin/K i app meprin β) (mouse ovastacin) | Ki [2] | remaining activity at 10 µM (MMP2) | remaining activity at 200 µM (MMP2) | remaining activity at 10 µM (ADAM10) | remaining activity at 200 µM (ADAM10) | remaining activity at 10 µM (MMP13) | remaining activity at 200 µM (MMP13) | remaining activity at 10 µM (MMP9) | remaining activity at 200 µM (MMP9) | SF: selectivity factor (K i app meprin β/K i app meprin α) [3] | remaining activity at 10 µM (ADAM17) | remaining activity at 200 µM (ADAM17) | Ki [3] | Structure (SMILES) | viability at 24 h, 30 µM (cell-viability assay [1]) | viability at 24 h, 30 µM (cell-viability assay [4]) | also measured |
| --- | --- | --- | --- | --- | --- | --- | --- | --- | --- | --- | --- | --- | --- | --- | --- | --- | --- | --- | --- |
| 66 nM | 17 | 0.1 | 813 nM | 87% | 34% | 80% | 22% | 80% | 31% | 86% | 16% | 200 and 203 | 62% | 9% |  | O=C(Cc1c(-c2ccccc2)noc1-c1ccccc1)NO [2 c, 2‐(3,5‐Diphenylisoxazol‐4‐yl)ethanehydroxamic acid] | 85% | 96% | fold increase in activity against meprin β compared to 2 a ([2]; compared to pyrrole 2 a): 5 fold; fold improvement in potency against meprin α compared to amine 1 d ([3]; compared to 1 d): 2000 fold; fold increase in activity against meprin α compared to 2 a ([3]; compared to pyrrole 2 a): 5 fold |
|  |  |  | 13500 nM | 98% | 74% | 75% | 21% | 79% | 66% | 89% | 39% | 435 | 75% | 24% | 31 nM | O=C(CCc1c(-c2ccccc2)noc1-c1ccccc1)NO [2 d, 3‐(3,5‐Diphenylisoxazol‐4‐yl)propanehydroxamic acid] | 90% | 123% |  |
| 2420 nM | 32 | 0.3 | 8030 nM | 97% | 77% | 66% | 12% | 93% | 68% | 93% | 65% | 106 | 76% | 27% | 76 nM | O=C(CCc1c(-c2ccccc2)n[nH]c1-c1ccccc1)NO [2 f, 3‐(3,5‐Diphenyl‐1H‐pyrazol‐4‐yl)propanehydroxamic acid] | 93% | 93% |  |
| 4880 nM | 74 | 0.6 | 8680 nM | 95% | 70% | 89% | 83% | 93% | 76% | 99% | 54% | 132 | 90% | 56% | 66 nM | O=C(Cn1c(-c2ccccc2)nnc1-c1ccccc1)NO [2 g, 2‐(3,5‐Diphenyl‐1,2,4‐triazol‐4‐yl)ethanehydroxamic acid] | 94% | 99% |  |
| 93 nM | 1.3 | 0.1 | 1080 nM | 85% | 41% | 89% | 68% | 77% | 54% | 90% | 53% | 16 | 88% | 56% | 69 nM | O=C(Cn1c(-c2ccccc2)cc2ccccc21)NO [4 a, 2‐(2‐Phenylindol‐1‐yl)ethanehydroxamic acid] |  |  |  |
| 2090 nM | 13 | 1.3 | 1620 nM | 89% | 46% | 87% | 76% | 102% | 72% | 96% | 68% | 10 | 92% | 56% | 163 nM | O=C(Cn1c(-c2ccccc2)nc2ccccc21)NO [4 c, 2‐(2‐Phenylbenzimidazol‐1‐yl)ethanehydroxamic acid] | 85% | 94% |  |
